# Results reported in US8778941B2, “TRPM8 antagonists and their use in treatments” (AMGEN Inc., priority 2011, dated 2014).
# pIC50: −log10 of the molar value.
# Target: T1, human TRPM8 (Homo sapiens, UniProt Q7Z2W7)
# T1 construct: expressed in transfected cells; host or cells: Chinese hamster ovary (CHO) cells, T-REx tetracycline-inducible expression system (Invitrogen), co-transfected with pcDNA3.1 jellyfish aequorin
# Assay: Luminescence readout assay for measuring intracellular calcium (aequorin), hTRPM8 antagonism
# Format: cell-based
# Conditions: CHO cell line expressing human TRPM8 and aequorin; activation by icilin, L-menthol or cold buffer (table does not say which)
# Description: Luminescence Readout Assay for Measuring Intracellular Calcium.
# A stable Chinese hamster ovary cell line expressing human TRPM8 was generated using tetracycline inducible T-REx™ expression system from Invitrogen, Inc. (Carlsbad, Calif.). […] Twenty four hours before the assay, cells were seeded in 96-well plates and TRPM8 expression was induced with 0.5 μg/mL tetracycline. […] Potential antagonists were added 2.5 min prior to the addition of agonist, […], 100 µM L-menthol, or 1 min prior to the addition of cold buffer (<10° C.). The luminescence was measured by a CCD camera based FLASH-luminometer built by Amgen, Inc. A cooling device attached to FLASH luminometer was used for cold activation.
# T1 sequence (Q7Z2W7 whole entry): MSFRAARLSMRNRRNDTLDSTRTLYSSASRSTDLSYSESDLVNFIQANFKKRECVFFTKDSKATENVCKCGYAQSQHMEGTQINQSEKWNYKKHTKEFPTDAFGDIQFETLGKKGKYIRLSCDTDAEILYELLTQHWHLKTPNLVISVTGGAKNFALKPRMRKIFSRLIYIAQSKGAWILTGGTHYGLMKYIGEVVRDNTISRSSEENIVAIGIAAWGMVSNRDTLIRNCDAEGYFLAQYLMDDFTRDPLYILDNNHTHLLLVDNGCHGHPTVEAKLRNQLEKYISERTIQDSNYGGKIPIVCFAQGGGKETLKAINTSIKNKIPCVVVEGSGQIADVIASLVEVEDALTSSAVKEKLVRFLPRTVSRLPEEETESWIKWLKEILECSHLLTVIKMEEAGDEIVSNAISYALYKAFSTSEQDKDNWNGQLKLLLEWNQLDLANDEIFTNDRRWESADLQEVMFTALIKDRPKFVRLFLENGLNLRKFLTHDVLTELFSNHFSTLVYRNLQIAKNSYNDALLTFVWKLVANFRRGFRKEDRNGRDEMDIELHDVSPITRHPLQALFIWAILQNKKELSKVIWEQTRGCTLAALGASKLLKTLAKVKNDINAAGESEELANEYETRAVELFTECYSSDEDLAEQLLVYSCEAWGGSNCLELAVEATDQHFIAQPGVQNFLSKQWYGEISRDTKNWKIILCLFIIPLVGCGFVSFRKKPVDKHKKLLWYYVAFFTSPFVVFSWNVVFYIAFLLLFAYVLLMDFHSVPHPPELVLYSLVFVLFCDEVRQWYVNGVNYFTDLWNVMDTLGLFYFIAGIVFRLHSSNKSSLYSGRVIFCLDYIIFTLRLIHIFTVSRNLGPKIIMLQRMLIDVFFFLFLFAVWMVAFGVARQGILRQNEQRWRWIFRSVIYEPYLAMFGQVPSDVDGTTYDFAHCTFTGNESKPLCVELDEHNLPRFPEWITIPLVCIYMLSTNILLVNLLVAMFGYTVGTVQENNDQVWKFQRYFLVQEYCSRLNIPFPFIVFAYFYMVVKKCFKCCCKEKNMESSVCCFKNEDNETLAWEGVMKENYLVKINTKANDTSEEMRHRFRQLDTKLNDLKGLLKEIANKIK
row,SMILES,pIC50
1,"O=C(N[C@@H](c1ccc(C(F)(F)F)cc1)c1ccccn1)OCc1ccccc1 [Example 172, (S)-Benzyl(pyridin-2-yl(4-(trifluoromethyl)phenyl)methyl)-carbamate 2,2,2-trifluoroacetate]",6.44
2,"O=C(Nc1c(F)cccc1F)N[C@@H](c1ccc(C(F)(F)F)cc1)c1ncccc1C(F)(F)F [Example 50, (S)-1-(2,6-difluoro-phenyl)-3-((4-(trifluoro-methyl)-phenyl)(3-(trifluoro-methyl)-pyridin-2-yl)-methyl)urea]",6.68
3,"COC(=O)c1ccccc1NC(=O)N[C@@H](c1ccc(C(F)(F)F)cc1)c1ncccc1F [Example 118, (S)-methyl 2-(3-((3-fluoro-pyridin-2-yl)-(4-(trifluoro-methyl)-phenyl)-methyl)-ureido)-benzoate]",6.79
4,"O=C(Nc1ccc2occc2c1)N[C@@H](c1ccc(C(F)(F)F)cc1)c1ncccc1C(F)(F)F [Example 39, (S)-1-(benzofuran-5-yl)-3-((4-(trifluoro-methyl)-phenyl)(3-(trifluoro-methyl)-pyridin-2-yl)-methyl)urea (2,2,2-trifluoro-acetate)]",5.39
5,"Cc1cccc(CNC(=O)N[C@@H](c2ccc(C(F)(F)F)cc2)c2ncccc2C(F)(F)F)c1 [Example 147, (S)-1-(3-methylbenzyl)-3-((4-(trifluoro-methyl)-phenyl)(3-(trifluoro-methyl)-pyridin-2-yl)-methyl)urea (2,2,2-trifluoro-acetate)]",5.42
6,"CCc1cccc(CC)c1NC(=O)N[C@@H](c1ccc(C(F)(F)F)cc1)c1ncccc1C(F)(F)F [Example 88, (S)-1-(2,6-diethylphenyl)-3-((4-(trifluoro-methyl)-phenyl)(3-(trifluoro-methyl)-pyridin-2-yl)-methyl)urea (2,2,2-trifluoro-acetate)]",6.97
7,"Cc1c(NC(=O)N[C@@H](c2ccc(C(F)(F)F)cc2)c2ncccc2C(F)(F)F)cccc1[N+](=O)[O-] [Example 142, (S)-1-(2-methyl-3-nitrophenyl)-3-((4-(trifluoro-methyl)-phenyl)(3-(trifluoro-methyl)-pyridin-2-yl)-methyl)urea (2,2,2-trifluoro-acetate)]",5.66
8,"O=C(Nc1ccnc2ccccc12)N[C@@H](c1ccc(C(F)(F)F)cc1)c1ncccc1C(F)(F)F [Example 60, (S)-1-(quinolin-4-yl)-3-((4-(trifluoro-methyl)-phenyl)(3-(trifluoro-methyl)-pyridin-2-yl)-methyl)urea]",6.74
9,"C[C@@H](NC(=O)N[C@@H](c1ccc(C(F)(F)F)cc1)c1ncccc1C(F)(F)F)c1ccccc1 [Example 70, 1-((R)-1-phenylethyl)-3-((S)-(4-(trifluoro-methyl)-phenyl)(3-(trifluoro-methyl)-pyridin-2-yl)-methyl)urea (2,2,2-trifluoro-acetate)]",6.11
10,"COc1cc(CNC(=O)N[C@@H](c2ccc(C(F)(F)F)cc2)c2ncccc2C(F)(F)F)cc(OC)c1OC [Example 111, (S)-1-((4-(trifluoro-methyl)-phenyl)(3-(trifluoro-methyl)-pyridin-2-yl)-methyl)-3-(3,4,5-trimethoxy-benzyl)urea (2,2,2-trifluoro-acetate)]",5.62
11,"O=C(NC1CCOC1)N[C@@H](c1ccc(C(F)(F)F)cc1)c1ncccc1C(F)(F)F (stereo partly drawn) [Example 56, 1-(tetrahydrofuran-3-yl)-3-((S)-(4-(trifluoro-methyl)-phenyl)(3-(trifluoro-methyl)-pyridin-2-yl)-methyl)urea]",6.17
12,"COC(=O)c1cccc(NC(=O)N[C@@H](c2ccc(C(F)(F)F)cc2)c2ncccc2C(F)(F)F)c1C [Example 182, (S)-methyl 2-methyl-3-(3-((4-(trifluoro-methyl)phenyl) (3-(trifluoro-methyl)pyridin-2-yl)methyl)ureido)benzoate (2,2,2-trifluoro-acetate)]",6.37
13,"O=C(Nc1cccnc1)N[C@@H](c1ccc2ncccc2c1)c1ncccc1C(F)(F)F [Example 17, (S)-1-(pyridin-3-yl)-3-(quinolin-6-yl(3-(trifluoro-methyl)-pyridin-2-yl)-methyl)urea]",6.09
14,"O=C(N[C@@H](c1ccc(C(F)(F)F)cc1)c1ncccc1C(F)(F)F)N[C@H]1CCc2ccccc21 [Example 129, 1-((S)-2,3-dihydro-1H-inden-1-yl)-3-((S)-(4-(trifluoro-methyl)-phenyl)(3-(trifluoro-methyl)-pyridin-2-yl)-methyl)urea (2,2,2-trifluoro-acetate)]",5.70
15,"CC(NC(=O)N[C@@H](c1ccc(C(F)(F)F)cc1)c1ncccc1C(F)(F)F)c1ccc(Br)cc1 (stereo partly drawn) [Example 101, 1-(1-(4-bromophenyl)-ethyl)-3-((S)-(4-(trifluoro-methyl)-phenyl)(3-(trifluoro-methyl)-pyridin-2-yl)-methyl)urea (2,2,2-trifluoro-acetate)]",6.20
16,"COC(=O)[C@H](CCSC)NC(=O)N[C@@H](c1ccc(C(F)(F)F)cc1)c1ncccc1C(F)(F)F [Example 78, (S)-methyl 4-(methylthio)-2-(3-((S)-(4-(trifluoro-methyl)-phenyl)(3-(trifluoro-methyl)-pyridin-2-yl)-methyl)-ureido)-butanoate (2,2,2-trifluoro-acetate)]",5.91
17,"O=C(Nc1cccnc1)NC(c1ccc(F)c(C(F)(F)F)c1)c1ncccc1C(F)(F)F (stereo not drawn) [Example 21, 1-((4-fluoro-3-(trifluoro-methyl)-phenyl)(3-(trifluoro-methyl)-pyridin-2-yl)-methyl)-3-(pyridin-3-yl)-urea (2,2,2-trifluoro-acetate)]",6.75
18,"O=C(Nc1cccc([N+](=O)[O-])c1)N[C@@H](c1ccc(C(F)(F)F)cc1)c1ncccc1C(F)(F)F [Example 100, (S)-1-(3-nitrophenyl)-3-((4-(trifluoro-methyl)-phenyl)(3-(trifluoro-methyl)-pyridin-2-yl)-methyl)urea (2,2,2-trifluoro-acetate)]",6.85
19,"O=C(NCCc1ccc2c(c1)OCO2)N[C@@H](c1ccc(C(F)(F)F)cc1)c1ncccc1C(F)(F)F [Example 36, (S)-1-(2-(benzo[d][1,3]dioxol-5-yl)-ethyl)-3-((4-(trifluoro-methyl)-phenyl)(3-(trifluoro-methyl)-pyridin-2-yl)-methyl)urea (2,2,2-trifluoro-acetate)]",6.41
20,"COc1cccc([C@H](NC(=O)Nc2cccnc2)c2ncccc2C(F)(F)F)c1 [Example 4, (S)-1-((3-methoxy-phenyl)(3-(trifluoro-methyl)-pyridin-2-yl)-methyl)-3-(pyridin-3-yl)-urea]",5.91
21,"O=C(NCc1ccc(Cl)cc1)N[C@@H](c1ccc(C(F)(F)F)cc1)c1ncccc1C(F)(F)F [Example 134, (S)-1-(4-chlorobenzyl)-3-((4-(trifluoro-methyl)-phenyl)(3-(trifluoro-methyl)-pyridin-2-yl)-methyl)urea (2,2,2-trifluoro-acetate)]",5.97
22,"C[C@@H](NC(=O)N[C@@H](c1ccc(C(F)(F)F)c(F)c1)c1ncccc1C(F)(F)F)C(F)(F)F [Example 152, 1-((S)-(3-fluoro-4-(trifluoro-methyl)-phenyl)(3-(trifluoro-methyl)-pyridin-2-yl)-methyl)-3-((R)-1,1,1-trifluoro-propan-2-yl)-urea (2,2,2-trifluoro-acetate)]",7.15
23,"CCCCOC(=O)CNC(=O)N[C@@H](c1ccc(C(F)(F)F)cc1)c1ncccc1C(F)(F)F [Example 104, (S)-butyl 2-(3-((4-(trifluoro-methyl)-phenyl)(3-(trifluoro-methyl)-pyridin-2-yl)-methyl)-ureido)acetate (2,2,2-trifluoro-acetate)]",6.22
24,"O=C(Nc1cccnc1)N[C@@H](c1cnc2c(Cl)cccc2c1)c1ncccc1C(F)(F)F [Example 12, (S)-1-((8-chloroquinolin-3-yl)(3-(trifluoro-methyl)-pyridin-2-yl)-methyl)-3-(pyridin-3-yl)-urea]",7.06
25,Cc1ccc(C)c(NC(=O)N[C@@H](c2ccc(C(F)(F)F)cc2)c2ncccc2C(F)(F)F)c1 [Example 108],6.08
26,"O=C(Nc1cccnc1)N[C@@H](c1ccc(C(F)(F)F)cc1)c1ncccc1Br [Example 28, (S)-1-((3-bromopyridin-2-yl)(4-(trifluoro-methyl)-phenyl)-methyl)-3-(pyridin-3-yl)-urea]",7.17
27,"O=C(Nc1cccc(I)c1)N[C@@H](c1ccc(C(F)(F)F)cc1)c1ncccc1C(F)(F)F [Example 124, (S)-1-(3-iodophenyl)-3-((4-(trifluoro-methyl)-phenyl)(3-(trifluoro-methyl)-pyridin-2-yl)-methyl)urea (2,2,2-trifluoro-acetate)]",6.15
28,"O=C(Nc1cccnc1)NC(c1cc(F)cc(Cl)c1)c1ncccc1C(F)(F)F (stereo not drawn) [Example 23, 1-((3-chloro-5-fluoro-phenyl)(3-(trifluoro-methyl)-pyridin-2-yl)-methyl)-3-(pyridin-3-yl)-urea (2,2,2-trifluoro-acetate)]",6.59
29,"COc1ccc(OC)c(CCNC(=O)N[C@@H](c2ccc(C(F)(F)F)cc2)c2ncccc2C(F)(F)F)c1 [Example 110, (S)-1-(2,5-dimethoxy-phenethyl)-3-((4-(trifluoro-methyl)-phenyl)(3-(trifluoro-methyl)-pyridin-2-yl)-methyl)urea (2,2,2-trifluoro-acetate)]",6.72
30,"Cn1cc(NC(=O)N[C@@H](c2ccc(C(F)(F)F)cc2)c2ncccc2F)ccc1=O [Example 162, (S)-1-((3-fluoropyridin-2-yl)(4-(trifluoro-methyl)-phenyl)-methyl)-3-(1-methyl-6-oxo-1,6-dihydropyridin-3-yl)urea]",6.31
